Counter-ions that a name gives are not always drawn. Like-named read-outs stand apart in the source and are kept apart here.
Columns and labels:
Assay type in all cases: cell-based, Mycobacterium tuberculosis
[1] = system: 33 isolates of M. tuberculosis; details: for need for drug pre-treatment prior to phage incubation: Tb inoculum and phage added simultaneously, significant ΔCt in 24 hour
M. tuberculosis isolates [2] = system: M. tuberculosis isolates
[3] = system: M. tuberculosis in smear positive sputum sediments; details: total 22 sediments
[4] = system: M. tuberculosis H37Rv (ATCC 27294); experiment: D29 phage-qPCR assay development on H37Rv; details: for duration of drug treatment at which qPCR Ct became clearly disparate from control: drug treatment followed by 24 h phage incubation, FIG. 1D
M. tuberculosis isolates [5] = system: M. tuberculosis isolates; remark: listed apart in the source
[6] = strains confirmed as drug susceptible by agar proportion

Compound | need for drug pre-treatment prior to phage incubation [1] | Agar proportion R (n isolates) (M. tuberculosis isolates [2]; phage assay result R) | Agar proportion S (n isolates) (M. tuberculosis isolates [2]; phage assay result R) | Agar proportion R (n isolates) (M. tuberculosis isolates [2]; phage assay result S) | Agar proportion S (n isolates) (M. tuberculosis isolates [2]; phage assay result S) | Culture R (n samples) ([3]; sediment phage assay result R) | Culture S (n samples) ([3]; sediment phage assay result R) | Culture R (n samples) ([3]; sediment phage assay result S) | Culture S (n samples) ([3]; sediment phage assay result S) | also measured
[H]/N=C(/N)N[C@H]1[C@H](O)[C@@H](O)[C@H](O[C@@H]2O[C@@H](C)[C@](O)(C=O)[C@H]2O[C@@H]2O[C@@H](CO)[C@H](O)[C@@H](O)[C@@H]2NC)[C@@H](N/C(N)=N\[H])[C@@H]1O [Streptomycin, streptomycin sulfate] | no pre-treatment was required | 16 | 0 | 3 | 135 | 1 | 0 | 1 | 20 | 
CO[C@H]1/C=C/O[C@@]2(C)Oc3c(C)c(O)c4c(O)c(c(/C=N/N5CCN(C)CC5)c(O)c4c3C2=O)NC(=O)/C(C)=C\C=C\[C@H](C)[C@H](O)[C@@H](C)[C@@H](O)[C@@H](C)[C@H](OC(C)=O)[C@@H]1C [Rifampin, rifampin] |  | 5 | 2 | 5 | 142 | 1 | 0 | 0 | 21 | D29 phage assay susceptible (n isolates) ([1]; listed as RIF): 11; number of phage / real-time PCR Ct value after drug pre-treatment [4]: the number of phage did not increase/Ct value did not decrease; ΔCtRIF (Ct control−Ct drug) [4]: −12; ΔCt ([4]; H37Rv pre-treated with drug for 72 hours, FIG. 1B): approximately −5; duration of drug treatment at which qPCR Ct became clearly disparate from control ([4]; H37Rv): 24 h; Agar proportion susceptible (n isolates) (M. tuberculosis isolates [5]; listed as RIF): 11
NNC(=O)c1ccncc1 [Isoniazid, isoniazid] |  | 22 | 9 | 5 | 118 | 1 | 3 | 0 | 18 | number of phage / real-time PCR Ct value after drug pre-treatment [4]: the number of phage did not increase/Ct value did not decrease; need for drug pre-treatment prior to phage incubation ([4]; H37Rv, FIG. 1E, 48 h superior to 24 h, 6 h and 3 h): pre-treatment was required; duration of drug treatment at which qPCR Ct became clearly disparate from control ([4]; H37Rv): 48 h
NCC[C@H](O)C(=O)N[C@@H]1C[C@H](N)[C@@H](O[C@H]2O[C@H](CN)[C@@H](O)[C@H](O)[C@H]2O)[C@H](O)[C@H]1O[C@H]1O[C@H](CO)[C@@H](O)[C@H](N)[C@H]1O [Amikacin, amikacin] | no pre-treatment was required |  |  |  |  |  |  |  |  | D29 phage assay susceptible (n isolates) ([1]; listed as AMK): 31; Agar proportion susceptible (n isolates) (M. tuberculosis isolates [5]; listed as AMK): 31
CCc1cc(C(N)=S)ccn1 [Ethionamide, ethionamide] |  |  |  |  |  |  |  |  |  | duration of drug treatment of Tb prior to 24 hours of phage incubation yielding optimal ΔCt [1]: 48 h
N[C@@H]1CON=C1O [Cycloserine, D-cycloserine] | no pre-treatment was required |  |  |  |  |  |  |  |  | 
CC(=O)NC[C@H]1CN(c2ccc(N3CCOCC3)c(F)c2)C(=O)O1 [Linezolid, linezolid] | no pre-treatment was required |  |  |  |  |  |  |  |  | 
capreomycin sulfate | no pre-treatment was required |  |  |  |  |  |  |  |  | D29 phage assay susceptible (n isolates) ([1]; listed as CAP): 30; Agar proportion susceptible (n isolates) (M. tuberculosis isolates [5]; listed as CAP): 31
Nc1ccc(C(=O)O)c(O)c1 [para-aminosalicylic acid] |  |  |  |  |  |  |  |  |  | duration of drug treatment of Tb prior to 24 hours of phage incubation yielding optimal ΔCt [1, 6]: 48 h
CC[C@@H](CO)NCCN[C@@H](CC)CO [Ethambutol, ethambutol hydrochloride] |  | 0 | 1 | 8 | 145 | 0 | 0 | 0 | 22 | D29 phage assay susceptible (n isolates) ([1]; listed as EMB, hydrochloride): 12; duration of drug treatment of Tb prior to 24 hours of phage incubation yielding optimal ΔCt [1, 6]: 48 h; Agar proportion susceptible (n isolates) (M. tuberculosis isolates [5]; listed as EMB, hydrochloride): 12

Source: patent US20140256664A1, “COMPOSITIONS AND METHODS FOR A MYCOBACTERIUM TUBERCULOSIS DRUG SUSCEPTIBILITY TEST” (priority 2011, published 2014)
